Usually EC50 stands for the concentration that produces a half-maximal response. A higher EC50 goes with a need for much substance.

This assay is described as follows: n vitro cytoprotection assay: HEp-2 cells, (originally derived from tumors grown in irradiated-cortisonised weanling rats that had been injected with epidermoid carcinoma tissue from a person's larynx, but later found to be indistinguishable from HeLa cells by PCR DNA analysis), were used for the culturing of genotype A, “Long” strain RSV. Flasks were inoculated with RSV and viral stocks were collected once cytopathic effect (CPE) was greater than 90%. Viral stocks in 25% sucrose media were snap frozen using liquid nitrogen to increase viral stability. Viral stock titers were quantified by tissue culture infectious dose 50% (TCID50) using 8,000 cells per well and 3-fold viral dilutions across a 96-well plate, cultured for 4 days.Following extensive parameter testing, the final assay is run as follows: HEp-2 cells are seeded into the inner 60 wells of a 96-well plate at 8,000 cells per well in a volume of 50 using Growth Media (DMEM without phenol red, 1% L-Glut, 1% Penn/Strep, 1% nonessential amino acids, 10% FBS). 2-fold serial dilutions of control and test compounds are added to the wells in duplicate in a total volume of 25 μL. Viral stock is then added to the wells in a volume of 25 μL, bringing the total volume of each well to 100 μL. Each 96-well plate has a control column of 6 wells with cells and virus but no compound (negative control, max CPE), a column with cells but no compound or virus (positive control, minimum CPE), and a column with no cells or virus or compound (background plate/reagent control). The control wells with cells but no virus are given an additional 25 uL of growth media containing an equal quantity of sucrose as those wells receiving the viral stock in order to keep consistent in media and volume conditions. The outer wells of the plate are filled with 125 μL of growth media to act as a thermal and evaporative moat around the test wells. Following a 4-day incubation period, the plates are read using ATPlite (50 uL added per well), which quantifies the amount of ATP (a measure of cell health) present in each well. Assay plates are read using the Envision luminometer. On the technique in general: Cytopathic effects are the visible damage that an infection or toxin causes in cultured cells.

Structures are written as SMILES.

On to `O=C1Nc2ccccc2N(c2ccccc2)C[C@@H]1Nc1nnc(-c2ccc(F)cc2)o1`, for which the concentration for a half-maximal effect (EC50) is more than 5 µM.

`O=C1Nc2ccccc2N(c2cc(F)c(F)c(F)c2)C[C@@H]1Nc1nnc(-c2ncc(C(F)(F)F)cc2N2CCOCC2)o1` had an EC50 of more than 5 µM.

In turn, `NNC(=O)c1nc(-c2cccnc2)sc1N1CCOCC1` displayed an EC50 of less than 2 µM. In the case of `O=C1Nc2ccccc2N(c2ccccc2)C[C@@H]1Nc1nc2ccccc2o1`, the EC50 was more than 5 µM. `O=C1Nc2ccccc2N(c2ccccc2)C[C@@H]1Nc1nnc(-c2ncc(C3CC3)cc2N2CCOCC2)o1` yielded an EC50 of less than 2 µM. With `NNC(=O)c1ncc(C(F)(F)F)cc1Cl` the figure was less than 2 µM; with `O=C1Nc2ccccc2N(c2ccccc2)C[C@@H]1Nc1nnc(-c2ccccc2)o1`, more than 5 µM; with `O=C1Nc2ccccc2N(c2ccccc2)C[C@@H]1Nc1nnc(-c2nc(C3CC3)sc2N2CCOCC2)o1`, less than 2 µM. As for `O=C1Nc2ccccc2N(c2ccccc2)C[C@@H]1Nc1nnc(-c2cccnc2N2CCOCC2)o1`, the EC50 came to 3.5 µM. Regarding `COCCNc1cc(C(F)(F)F)cnc1-c1nnc(N[C@H]2CN(c3ccccc3)c3ccccc3NC2=O)o1`, the concentration giving a half-maximal response (EC50) is more than 5 µM. Consider `O=C1Nc2ccccc2N(c2ccccc2)C[C@@H]1Nc1nnc(-c2ccc(N3CCOCC3)cc2F)o1`, for which the EC50 was more than 5 µM. On to `O=C(N[C@H]1CN(c2ccccc2)c2ccccc2NC1=O)c1ccccc1`, for which the EC50 was more than 5 µM. Turning to `O=C(NC1C(=O)Nc2ccccc2N(c2ccccc2)C1=O)c1ccccc1` (stereo not given), the EC50 is more than 5 µM. The molecule `O=C(Nc1ccccc1)N[C@H]1CN(c2ccccc2)c2ccccc2NC1=O` yielded an EC50 of more than 5 µM.

Turning to `NNC(=O)c1cn(-c2ccccn2)nc1N1CCOCC1`, the EC50 came out at 3.5 µM.

`O=C(Nc1ccccc1)NC1C(=O)Nc2ccccc2N(c2ccccc2)C1=O` (stereo not given) registered an EC50 of more than 5 µM. Consider `O=C1Nc2ccccc2N(c2ccccc2)C[C@@H]1Nc1nnc(-c2cn(C3CCCC3)nc2N2CCOCC2)o1`, for which the EC50 was less than 2 µM. The result for `CCOC(=O)c1nc(C(F)(F)F)sc1N1CCOCC1` reads less than 2 µM. As for `Cc1ccc(C(=O)NN)o1`, the EC50 is more than 5 µM. With `O=C(NNC(=S)NC1C(=O)Nc2ccccc2N(c2ccccc2)C1=O)c1ccccc1` (stereo not given) the figure was more than 5 µM.

The values above are taken from ChEMBL document CHEMBL5727896, “Aryldiazepine derivatives as RSV inhibitors” (2020).
